Measurements taken from patent US4550186A, “Binuclear copper (II) carboxylates formed from amine-carboxyboranes” (Duke University, priority 1983, dated 1985).
Read-outs that look alike come from different tables or passages of the source.

What was measured:
[1] = test system: Acetyl CoA synthetase; experiment: In vitro liver enzyme study: acetyl CoA synthetase; type: biochemical, mouse; details: in vitro CF1 liver, 30 min
Experimental: (§1) In vitro enzymatic studies were determined using 10% homogenates of CF1 male mouse liver with 50-200 μM of test drugs. In vivo enzymatic studies were determined using 10% homogenates of liver from CF1 male mice obtained after administering the agents for 16 days at a dose ranging from 2.5-20 mg/kg/day intraperitoneally. The liver homogenates for both in vitro and in vivo studies were prepared in 0.25M sucrose and 0.001M (ethylenedinitrilo)tetraacetic acid. Acetyl coenzyme A synthetase and adenosine triphosphate dependent citrate lyase activities were determined spectrophotometrically at 540 nm as the hydroxylamate of acetyl coenzyme A formed after 30 min at 37° C. Mitochondrial citrate exchange was determined by the procedure of Robinson et al [Eur. J. Biochem., 216, 63 (1970)] using ^14 C-sodium bicarbonate (41 mCi/mmol) incorporated into mitochondrial ^14 C-citrate after isolating rat mitochondria (9000 g×10 min) from the homogenates. The exchanges of the ^14 C-citrate were determined after incubating the mitochondrial fraction which was loaded with labeled citrate and test drugs for 10 min. Then the radioactivity was measured in the mitochondrial and supernantant fractions in scintillation fluid and expressed as a percentage. Cholesterol side chain oxidation was determined by the method of Kritchevsky and Tepper [Artherosclerosis, 18, 93 (1973)] using (26-^14 C) cholesterol (50 mCi/mmol) and mitochondria isolated from rat liver homogenates. […] Fatty acid synthetase activity was determined by the method of Brady et al [J. Biol. Chem., 235, 3093 (1960)] using [2-^14 C] malonyl-coenzyme A (37.5 mCi/mmol) which was incorporated into newly synthesized fatty acids that were extracted with ether and counted. Acyl transferase activity was determined with glycerol-3phosphate [L-2-^3 H(N)] […] HCl and counted. Phosphatidate phosphohydrolase activity was measured as the inorganic phosphate released after 30 min from phosphatidic acid by the method of Mavis et al [J. Lipid Res., 19, 467 (1978)]. […]

[2] = molecular target: T1, Fatty Acid Synthetase (Mus musculus, UniProt P19096); experiment: In vitro liver enzyme study: fatty acid synthetase; type: biochemical; details: in vitro CF1 liver
T1 construct: 10% homogenates of CF1 male mouse liver; from tissue; host or cells: CF1 male mouse liver, 10% homogenate
T1 sequence (P19096 whole entry): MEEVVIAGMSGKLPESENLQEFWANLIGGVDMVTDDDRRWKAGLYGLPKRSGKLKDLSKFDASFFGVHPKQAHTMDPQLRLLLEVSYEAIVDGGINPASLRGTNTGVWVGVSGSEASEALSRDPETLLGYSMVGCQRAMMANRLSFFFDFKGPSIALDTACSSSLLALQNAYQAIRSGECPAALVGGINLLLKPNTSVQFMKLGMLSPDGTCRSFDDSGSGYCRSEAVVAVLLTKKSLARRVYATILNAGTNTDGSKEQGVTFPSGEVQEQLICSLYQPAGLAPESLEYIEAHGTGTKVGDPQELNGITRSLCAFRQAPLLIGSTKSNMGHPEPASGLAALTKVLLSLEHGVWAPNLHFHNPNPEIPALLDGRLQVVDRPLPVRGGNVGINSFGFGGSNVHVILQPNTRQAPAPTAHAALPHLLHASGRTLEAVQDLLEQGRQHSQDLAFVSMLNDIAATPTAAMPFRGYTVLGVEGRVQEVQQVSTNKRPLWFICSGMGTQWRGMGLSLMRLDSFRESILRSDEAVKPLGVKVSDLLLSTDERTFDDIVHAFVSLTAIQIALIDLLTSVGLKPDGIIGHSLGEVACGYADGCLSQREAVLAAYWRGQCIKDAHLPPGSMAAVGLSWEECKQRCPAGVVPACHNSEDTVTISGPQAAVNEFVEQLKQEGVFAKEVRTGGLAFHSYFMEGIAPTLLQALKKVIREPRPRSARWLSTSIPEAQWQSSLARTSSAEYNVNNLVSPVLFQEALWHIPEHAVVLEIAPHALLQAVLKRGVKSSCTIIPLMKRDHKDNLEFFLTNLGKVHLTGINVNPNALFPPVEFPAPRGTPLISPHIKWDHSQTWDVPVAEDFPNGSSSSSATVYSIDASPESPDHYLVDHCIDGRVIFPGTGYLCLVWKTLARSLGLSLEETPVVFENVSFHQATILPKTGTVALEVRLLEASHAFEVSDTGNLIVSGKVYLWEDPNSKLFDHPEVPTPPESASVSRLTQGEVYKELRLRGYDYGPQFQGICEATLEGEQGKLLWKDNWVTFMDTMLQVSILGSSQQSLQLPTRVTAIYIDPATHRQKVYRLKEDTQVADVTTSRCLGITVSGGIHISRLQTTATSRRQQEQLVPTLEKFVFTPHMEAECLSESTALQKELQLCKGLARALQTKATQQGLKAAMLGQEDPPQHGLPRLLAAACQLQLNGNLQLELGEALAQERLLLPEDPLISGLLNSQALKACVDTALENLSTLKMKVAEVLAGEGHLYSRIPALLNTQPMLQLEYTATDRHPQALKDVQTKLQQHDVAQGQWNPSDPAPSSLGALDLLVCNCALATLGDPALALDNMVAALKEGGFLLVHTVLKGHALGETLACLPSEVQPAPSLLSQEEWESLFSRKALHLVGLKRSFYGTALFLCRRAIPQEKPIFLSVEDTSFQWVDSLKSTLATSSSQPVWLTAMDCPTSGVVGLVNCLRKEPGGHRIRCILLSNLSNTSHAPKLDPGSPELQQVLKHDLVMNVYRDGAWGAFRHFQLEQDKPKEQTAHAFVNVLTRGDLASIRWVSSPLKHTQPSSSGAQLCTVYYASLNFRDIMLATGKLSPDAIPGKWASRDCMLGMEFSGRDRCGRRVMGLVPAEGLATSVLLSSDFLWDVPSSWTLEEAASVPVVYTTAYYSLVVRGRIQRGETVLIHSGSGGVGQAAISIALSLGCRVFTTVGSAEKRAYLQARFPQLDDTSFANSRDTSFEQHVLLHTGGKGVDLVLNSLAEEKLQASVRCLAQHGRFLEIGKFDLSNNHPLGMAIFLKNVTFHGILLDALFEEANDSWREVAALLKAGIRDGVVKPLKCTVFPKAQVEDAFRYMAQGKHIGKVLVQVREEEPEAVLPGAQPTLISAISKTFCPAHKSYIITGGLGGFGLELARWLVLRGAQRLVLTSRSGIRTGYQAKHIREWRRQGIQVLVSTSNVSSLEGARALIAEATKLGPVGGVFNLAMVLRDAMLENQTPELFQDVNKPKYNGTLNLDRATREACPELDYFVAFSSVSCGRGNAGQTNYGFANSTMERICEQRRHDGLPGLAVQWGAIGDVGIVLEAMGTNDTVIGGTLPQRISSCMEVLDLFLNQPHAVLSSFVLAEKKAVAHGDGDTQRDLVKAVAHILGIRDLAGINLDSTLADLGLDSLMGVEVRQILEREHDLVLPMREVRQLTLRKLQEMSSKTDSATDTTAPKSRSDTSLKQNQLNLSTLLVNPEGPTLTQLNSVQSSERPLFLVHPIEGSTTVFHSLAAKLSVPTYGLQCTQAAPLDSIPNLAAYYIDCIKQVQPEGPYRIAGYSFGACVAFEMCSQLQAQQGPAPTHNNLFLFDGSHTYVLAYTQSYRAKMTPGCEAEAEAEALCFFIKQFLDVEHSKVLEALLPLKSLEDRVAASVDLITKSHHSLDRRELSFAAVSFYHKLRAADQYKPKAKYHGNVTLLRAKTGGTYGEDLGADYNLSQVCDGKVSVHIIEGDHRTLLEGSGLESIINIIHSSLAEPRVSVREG
Experimental: as §1

[3] = test system: deoxyribonucleic acid synthesis of Ehrlich ascites cells; experiment: In vivo thymidine incorporation into deoxyribonucleic acid; design: species or system mouse
Experimental: CF1 male mice (~30 g) were implanted with 2×10^6 Ehrlich ascites tumor cells, intraperitoneally on Day 0. Compound I was suspended by homogenation in 0.05% polysorbate.80-water and administered intraperitoneally at 10 and 20 mg/kg for 9 days to determine its effectiveness for inhibition of tumor growth. Mice were sacrificed on Day 10, and the ascites fluid was collected from the peritoneal cavity. The volume and ascrit (packed cell volume) were determined for each animal and the percent inhibition of tumor growth was calculated. For the metabolic studies, mice were treated on Days 8 and 9 with 10 mg/kg of Compound I, intraperitoneally. The animal was sacrificed on Day 10 and the ascites fluid harvested. […]
For in vivo studies, incorporation of thymidine into deoxyribonucleic acid was determined by the method of Chae et al [Proc. Am. […] The deoxyribonucleic acid was isolated and the tritium content was determined in a toluene based scintillation fluid. The deoxyribonucleic acid concentration was determined by the diphenylamine reaction using calf thymus deoxyribonucleic acid as a standard. Uridine incorporation into ribonucleic acid was determined using 10 μCi of 5,6-^3 H-uridine (22.4 Ci/mmol). […] Leucine incorporation into protein was determined by the method of Sartorelli [Biochem. Biophys. […] Protein content was determined by the Lowry procedure using bovine serum albumin as a standard.

[4] = molecular target: T2, messenger ribonucleic acid polymerase (Mus musculus, UniProt P08775+Q8CFI7); experiment: In vivo messenger ribonucleic acid polymerase activity
T2 construct: enzymes isolated from nuclei; endogenous in cells; host or cells: Ehrlich ascites tumor cell nuclei, ammonium sulfate fraction
Experimental: CF1 male mice (~30 g) were implanted with 2×10^6 Ehrlich ascites tumor cells, intraperitoneally on Day 0. Compound I was suspended by homogenation in 0.05% polysorbate.80-water and administered intraperitoneally at 10 and 20 mg/kg for 9 days to determine its effectiveness for inhibition of tumor growth. Mice were sacrificed on Day 10, and the ascites fluid was collected from the peritoneal cavity. The volume and ascrit (packed cell volume) were determined for each animal and the percent inhibition of tumor growth was calculated. For the metabolic studies, mice were treated on Days 8 and 9 with 10 mg/kg of Compound I, intraperitoneally. The animal was sacrificed on Day 10 and the ascites fluid harvested. The in vitro metabolic studies were performed at […] final concentration of Compound I.
In vitro and in vivo nuclear deoxyribonucleic acid polymerase activity was determined on isolated Ehrlich ascites cell nuclei. The incubation was that described by Sawada et al [Can. Res., 34, 3341 (1974)] except that [methyl-^3 H] deoxythymidine triphosphate (82.4 Ci/mmol) was used. The acid insoluble nucleic acid was collected on GF/F filters and counted. Nuclear ribonucleic acid polymerase activities were determined on enzymes isolated from nuclei. […] The acid insoluble ribonucleic acid was collected on nitrocellulose filters and counted.

[5] = 10 mg/kg/day I.P. on Days 8 and 9

{Cu[(CH3)3 N.BH2 CO2 ]2.(CH3)3 N.BH2 COOH} [Compound I]
Acetyl CoA synthetase ([1]; 50 μM): 104 ± 5 Percent Control
Acetyl CoA synthetase ([1]; 100 μM): 87 ± 4 Percent Control
Acetyl CoA synthetase ([1]; 200 μM): 84 ± 5 Percent Control
Fatty Acid Synthetase ([2]; 50 μM): 86 ± 7 Percent Control
Fatty Acid Synthetase ([2]; 100 μM): 96 ± 8 Percent Control
Fatty Acid Synthetase ([2]; 200 μM): 87 ± 7 Percent Control
3H-Thymidine incorporation into deoxyribonucleic acid [3, 5]: 43 ± 5 % Control
thymidine incorporation into deoxyribonucleic acid inhibited ([3]; 10 day Ehrlich ascites cells): 57%
Messenger ribonucleic acid polymerase activity [4]: not affected
Messenger ribonucleic acid polymerase activity [4, 5]: 96 ± 9 % Control
